In assay [1] the test system is Mus musculus. The assay can be described thus: Compound was tested for inhibition of MMP-3 -mediated degradation of radiolabeled transferrin in mouse pleural cavity(PLCAV) at a dose 30 mg/kg administered intravenously. In kind it is functional. Particulars: route intravenous.
Assay [2] has as its system Mus musculus. The assay can be described thus: Compound was tested for inhibition of MMP-3 -mediated degradation of radiolabeled transferrin in mouse pleural cavity(PLCAV) at a dose 100 mg/kg administered perorally. In kind it is functional. Conditions: route oral.
Assay [3] concerns the target 72 kDa type IV collagenase (Homo sapiens, UniProt P08253). The assay is described as follows: Inhibition of matrix metalloprotease-2 (MMP-2).
A further assay has as its target T1, Interstitial collagenase (Homo sapiens, UniProt P03956).
T1 sequence (P03956 whole entry): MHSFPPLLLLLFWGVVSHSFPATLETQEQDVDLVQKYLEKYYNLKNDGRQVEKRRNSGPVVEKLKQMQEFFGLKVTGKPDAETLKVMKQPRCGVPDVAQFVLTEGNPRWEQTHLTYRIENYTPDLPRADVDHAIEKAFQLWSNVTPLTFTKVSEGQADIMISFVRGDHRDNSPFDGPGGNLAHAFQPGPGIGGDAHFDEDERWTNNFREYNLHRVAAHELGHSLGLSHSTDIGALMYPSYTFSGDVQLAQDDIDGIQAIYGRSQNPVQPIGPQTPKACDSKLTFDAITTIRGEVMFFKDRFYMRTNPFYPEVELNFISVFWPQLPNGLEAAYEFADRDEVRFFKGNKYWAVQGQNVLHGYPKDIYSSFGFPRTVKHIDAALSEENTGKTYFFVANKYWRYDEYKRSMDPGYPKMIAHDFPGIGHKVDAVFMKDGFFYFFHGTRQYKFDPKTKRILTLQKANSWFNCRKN
The assay can be described thus: Inhibition of matrix metalloprotease-1 (MMP-1).

A further assay has as its target Stromelysin-1 (Homo sapiens, UniProt P08254).

Data on 10 compounds can be found in ChEMBL document CHEMBL1129006, “Orally active inhibitors of stromelysin-1 (MMP-3)” (Bioorg Med Chem Lett, 1996).

A value given as a limit tells only on which side of the number the result lay.

Sequence of Stromelysin-1 (P08254 whole entry): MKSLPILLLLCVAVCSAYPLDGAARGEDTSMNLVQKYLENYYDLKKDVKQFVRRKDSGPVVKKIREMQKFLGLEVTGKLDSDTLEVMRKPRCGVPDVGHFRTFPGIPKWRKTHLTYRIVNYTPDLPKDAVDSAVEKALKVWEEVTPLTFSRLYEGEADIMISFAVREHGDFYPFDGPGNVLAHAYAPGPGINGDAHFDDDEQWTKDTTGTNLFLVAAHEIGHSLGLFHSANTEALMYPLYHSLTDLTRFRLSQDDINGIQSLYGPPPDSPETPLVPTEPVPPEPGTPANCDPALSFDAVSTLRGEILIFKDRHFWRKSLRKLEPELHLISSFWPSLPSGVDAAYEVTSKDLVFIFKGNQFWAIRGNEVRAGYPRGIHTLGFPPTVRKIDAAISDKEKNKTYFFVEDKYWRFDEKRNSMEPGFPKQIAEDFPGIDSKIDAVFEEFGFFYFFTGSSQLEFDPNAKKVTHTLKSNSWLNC
Sequence of 72 kDa type IV collagenase (P08253 whole entry): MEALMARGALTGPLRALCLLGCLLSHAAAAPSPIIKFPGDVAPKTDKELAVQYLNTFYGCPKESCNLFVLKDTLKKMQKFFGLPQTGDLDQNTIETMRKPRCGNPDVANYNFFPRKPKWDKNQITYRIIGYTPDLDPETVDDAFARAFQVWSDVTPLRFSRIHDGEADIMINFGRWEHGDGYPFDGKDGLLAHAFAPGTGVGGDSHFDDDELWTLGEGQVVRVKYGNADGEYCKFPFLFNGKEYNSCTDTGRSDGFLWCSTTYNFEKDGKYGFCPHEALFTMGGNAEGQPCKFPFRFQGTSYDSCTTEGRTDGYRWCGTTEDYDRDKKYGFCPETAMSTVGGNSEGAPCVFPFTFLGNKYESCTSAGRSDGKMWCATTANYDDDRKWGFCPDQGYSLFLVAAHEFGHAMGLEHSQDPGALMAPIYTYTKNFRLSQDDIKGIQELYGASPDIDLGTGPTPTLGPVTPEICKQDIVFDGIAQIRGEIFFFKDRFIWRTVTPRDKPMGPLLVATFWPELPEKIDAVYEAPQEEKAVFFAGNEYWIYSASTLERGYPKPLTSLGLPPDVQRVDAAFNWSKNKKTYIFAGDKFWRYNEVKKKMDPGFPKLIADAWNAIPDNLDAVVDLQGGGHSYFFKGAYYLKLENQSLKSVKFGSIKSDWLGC
Description for Stromelysin-1: Inhibition of matrix metalloprotease-3 (MMP-3).

The inhibition in vivo is the percentage by which the read-out fell short of the control. In the assay on Mus musculus [1], `CC(C)C[C@H](NC(=O)[C@H](CCc1ccccc1)N[C@H](CCCCN1C(=O)c2ccccc2C1=O)C(=O)O)C(=O)Nc1ccccc1` showed an inhibition in vivo at 30 mg/kg of 91%. Moreover, the inhibition in vivo at 100 mg/kg in the assay on Mus musculus [2] worked out at 1%.
For orientation: Ki means the dissociation constant of the complex between target and ligand, obtained from inhibition or displacement. Read a low Ki as a stronger hold on the target. For the compound `CCCc1ccc(CC[C@H](N[C@H](CCCCN2C(=O)c3ccccc3C2=O)C(=O)O)C(=O)N[C@@H](CC(C)C)C(=O)Nc2ccccc2)cc1`, the figures for the Ki (in assay [3]; on Interstitial collagenase; on Stromelysin-1) were 0.0026 µM, more than 10 µM and 0.0019 µM, respectively. The same compound came in with an inhibition in vivo at 30 mg/kg in the assay with Mus musculus [1] of 89%.
Regarding `CC(C)C[C@H](NC(=O)[C@H](CCc1ccccc1)NCC(=O)O)C(=O)Nc1ccccc1`, the results for the Ki (in assay [3]; at Interstitial collagenase; on Stromelysin-1) were 0.47 µM, 4.62 µM and 3.6 µM, respectively.
For `CCCc1ccc(CC[C@H](C[C@H](CCCCN2Cc3ccccc3C2=O)C(=O)O)C(=O)N[C@@H](CC(C)C)C(=O)Nc2ccccc2)cc1`, the Ki in assay [3] is 0.0057 µM; at Interstitial collagenase, more than 10 µM; on Stromelysin-1, 0.00036 µM. Besides, in the assay with Mus musculus [1], the inhibition in vivo at 30 mg/kg was found to be 82%. In the assay on Mus musculus [2], the inhibition in vivo at 100 mg/kg amounted to 20%.
With `CCCc1ccc(CC[C@H](N[C@H](CCCCN2Cc3ccccc3C2=O)C(=O)O)C(=O)N[C@@H](CC(C)C)C(=O)Nc2ccccc2)cc1`, the Ki in assay [3] came out at 0.11 µM; on Interstitial collagenase it was 1.6 µM; on Stromelysin-1, 0.0095 µM. The same compound gave an inhibition in vivo at 30 mg/kg in the assay with Mus musculus [1] of 81%. The inhibition in vivo at 100 mg/kg in the assay on Mus musculus [2] was 4%.
In the case of `CC(C)C[C@H](NC(=O)[C@@H](CCC(=O)O)CCc1ccccc1)C(=O)Nc1ccccc1`, the Ki in assay [3] was more than 1 µM; on Interstitial collagenase it was more than 10 µM; at Stromelysin-1, 5.8 µM.
Usually ED50 stands for the dose at which the effect has come halfway, by size or by number of responders. As for `CCCc1ccc(CC[C@H](CCC(=O)O)C(=O)N[C@@H](CC(C)C)C(=O)Nc2ccccc2)cc1`, the Ki in assay [3] is 0.22 µM; on Interstitial collagenase, more than 10 µM; on Stromelysin-1, 0.14 µM. Moreover, it took a dose of 47 mg/kg to reach the 50% effect level in the assay on Mus musculus [2] (ED50).
In the case of `CCCc1ccc(CC[C@H](C[C@H](C)C(=O)O)C(=O)N[C@@H](CC(C)C)C(=O)Nc2ccccc2)cc1`, the figures for the inhibition constant (Ki) (in assay [3]; at Interstitial collagenase; at Stromelysin-1) were 0.31 µM, more than 10 µM and 0.068 µM, respectively. Besides, the ED50 in the assay with Mus musculus [2] is 32 mg/kg.
In turn, `CCCc1ccc(CC[C@H](N[C@H](C)C(=O)O)C(=O)N[C@@H](CC(C)C)C(=O)Nc2ccccc2)cc1` yielded an inhibition in vivo at 30 mg/kg with Mus musculus [1] of 63%. Besides, in the assay on Mus musculus [2], it took a dose of 65 mg/kg to reach the 50% effect level (ED50).
`CC(C)C[C@H](NC(=O)[C@H](CCc1ccccc1)N[C@H](C)C(=O)O)C(=O)Nc1ccccc1` [L-696418] showed an inhibition in vivo at 30 mg/kg in the assay on Mus musculus [1] of 50%. This compound also gave a Ki on Interstitial collagenase of 0.77 µM. For the same compound, in the assay on Mus musculus [2], the inhibition in vivo at 100 mg/kg is 55%.
